# US12378224B2 (Dong-A Socio Holdings Co., Ltd., priority 2016, dated 2025)
# Molecular target: human MER (528-end) (Homo sapiens (Human), UniProt Q12866)
# Experiment: HTRF Kinase Activity Biochemical Assay (KinEASE-TK)
# Conditions: 10 uM ATP
# Method in brief: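 Activity read-out is the HTRF ratio (665 nm over 620 nm emission, ×10,000; excitation 340 nm) after 1 h detection with 0.375 nM Eu3+-cryptate anti-TK antibody plus 0.062 uM SA-XL665. Preceding kinase step: human MER (528-end), biotinylated TK substrate, 1 h, room temperature.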
# Sequence of human MER (528-end) (Q12866 528-999 limits assumed): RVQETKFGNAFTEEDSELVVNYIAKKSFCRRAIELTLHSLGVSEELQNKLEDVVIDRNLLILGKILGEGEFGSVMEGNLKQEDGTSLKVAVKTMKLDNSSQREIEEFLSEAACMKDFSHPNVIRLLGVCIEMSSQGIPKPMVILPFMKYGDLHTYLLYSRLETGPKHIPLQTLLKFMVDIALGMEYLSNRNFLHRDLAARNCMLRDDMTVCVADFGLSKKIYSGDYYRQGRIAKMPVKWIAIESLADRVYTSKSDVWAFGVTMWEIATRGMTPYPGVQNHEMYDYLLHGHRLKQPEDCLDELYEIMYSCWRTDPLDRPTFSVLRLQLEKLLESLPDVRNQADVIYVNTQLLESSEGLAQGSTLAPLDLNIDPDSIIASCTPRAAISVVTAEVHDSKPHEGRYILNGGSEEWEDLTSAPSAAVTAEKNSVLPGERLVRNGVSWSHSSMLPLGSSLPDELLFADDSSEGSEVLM
row,IC50 [nM],Structure (SMILES)
1,10 to 100,"CN1CCN(Cc2ccc(-c3ccc(C(=O)N4CC[C@@H](NC(=O)c5cc(-c6cnn(C)c6)cnc5N)C4)cc3)cc2)CC1 [Example 385, (R)-2-amino-5-(1-methyl-1H-pyrazol-4-yl)-N-(1-(4′-((4-methylpiperazin-1-yl)methyl)-[1,1′-biphenyl]-4-carbonyl)pyrrolidin-3-yl)nicotinamide]"
2,100 to 1000,"CN1CCN(C(C)(C)c2ccc(-c3ccc(C(=O)N4CC[C@@H](NC(=O)c5cc(-c6cnn(C)c6)cnc5N)C4)cc3)cc2)CC1 [Example 386, (R)-2-amino-5-(1-methyl-1H-pyrazol-4-yl)-N-(1-(4′-(2-(4-methylpiperazin-1-yl)propan-2-yl)-[1,1′-biphenyl]-4-carbonyl)pyrrolidin-3-yl)nicotinamide]"
3,100 to 1000,"CN1CCN(Cc2cccc(-c3ccc(C(=O)N4CC[C@@H](NC(=O)c5cc(-c6cnn(C)c6)cnc5N)C4)cc3)c2)CC1 [Example 388, (R)-2-amino-5-(1-methyl-1H-pyrazol-4-yl)-N-(1-(3′-((4-methylpiperazin-1-yl)methyl)-[1,1′-biphenyl]-4-carbonyl)pyrrolidin-3-yl)nicotinamide]"
4,100 to 1000,"Cn1cc(-c2cnc(N)c(C(=O)N[C@@H]3CCN(C(=O)c4ccc(-c5ccccc5Cl)nc4)C3)c2)cn1 [Example 397, (R)-2-amino-N-(1-(6-(2-chlorophenyl)nicotinoyl)pyrrolidin-3-yl)-5-(1-methyl-1H-pyrazol-4-yl)nicotinamide]"
5,> 1000,"Cn1cc(-c2cnc(N)c(C(=O)N[C@@H]3CCN(C(=O)c4ccc(I)cc4)C3)c2)cn1 [Example 400, (R)-2-amino-N-(1-(4-iodobenzoyl)pyrrolidin-3-yl)-5-(1-methyl-1H-pyrazol-4-yl)nicotinamide]"
6,> 1000,"Cn1cc(-c2cnc(N)c(C(=O)N[C@@H]3CCN(C(=O)c4cc5ccccc5o4)C3)c2)cn1 [Example 401, (R)-2-amino-N-(1-(benzofuran-2-carbonyl)pyrrolidin-3-yl)-5-(1-methyl-1H-pyrazol-4-yl)nicotinamide]"
7,> 1000,"Cc1c(C(=O)N2CC[C@@H](NC(=O)c3cc(-c4cnn(C)c4)cnc3N)C2)oc2ccccc12 [Example 402, (R)-2-amino-5-(1-methyl-1H-pyrazol-4-yl)-N-(1-(3-methylbenzofuran-2-carbonyl)pyrrolidin-3-yl)nicotinamide]"
8,> 1000,"Cn1cc(-c2cnc(N)c(C(=O)N[C@@H]3CCN(C(=O)C4Cc5cc(Cl)ccc5O4)C3)c2)cn1 (stereo partly drawn) [Example 404, 2-amino-N-((3R)-1-(5-chloro-2,3-dihydrobenzofuran-2-carbonyl)pyrrolidin-3-yl)-5-(1-methyl-1H-pyrazol-4-yl)nicotinamide]"
9,100 to 1000,"Cn1cc(-c2cnc(N)c(C(=O)N[C@@H]3CCN(C(=O)c4ccc5ccccc5c4)C3)c2)cn1 [Example 405, (R)—N-(1-(2-naphthoyl)pyrrolidin-3-yl)-2-amino-5-(1-methyl-1H-pyrazol-4-yl)nicotinamide]"
10,> 1000,"Cn1cc(-c2cnc(N)c(C(=O)N[C@@H]3CCN(C(=O)c4cc(Br)c(Br)s4)C3)c2)cn1 [Example 407, (R)-2-amino-N-(1-(4,5-dibromothiophene-2-carbonyl)pyrrolidin-3-yl)-5-(1-methyl-1H-pyrazol-4-yl)nicotinamide]"
11,> 1000,"Cc1ccc(C(=O)N2CC[C@@H](NC(=O)c3cc(-c4cnn(C)c4)cnc3N)C2)s1 [Example 408, (R)-2-amino-5-(1-methyl-1H-pyrazol-4-yl)-N-(1-(5-methylthiophene-2-carbonyl)pyrrolidin-3-yl)nicotinamide]"
12,> 1000,"CN1CCN(c2ccc(C(=O)N3CC[C@@H](NC(=O)c4cc(-c5cnn(C)c5)cnc4N)C3)cc2)CC1 [Example 416, (R)-2-amino-5-(1-methyl-1H-pyrazol-4-yl)-N-(1-(4-(4-methylpiperazin-1-yl)benzoyl)pyrrolidin-3-yl)nicotinamide]"
13,> 1000,"Cn1cc(-c2cnc(N)c(C(=O)N[C@@H]3CCN(C(=O)C=Cc4ccccc4)C3)c2)cn1 [Example 424, (R)-2-amino-N-(1-cinnamoylpyrrolidin-3-yl)-5-(1-methyl-1H-pyrazol-4-yl)nicotinamide]"
14,> 1000,"Cn1cc(-c2cnc(N)c(C(=O)N[C@@H]3CCN(C(=O)/C=C/c4ccc5c(c4)OCO5)C3)c2)cn1 [Example 425, (R,E)-2-amino-N-(1-(3-(benzo[d][1,3]dioxol-5-yl)acryloyl)pyrrolidin-3-yl)-5-(1-methyl-1H-pyrazol-4-yl)nicotinamide]"
15,100 to 1000,"Cn1cc(-c2cnc(N)c(C(=O)N[C@@H]3CCN(C(=O)/C=C/c4ccc(Br)cc4)C3)c2)cn1 [Example 427, (R,E)-2-amino-N-(1-(3-(4-bromophenyl)acryloyl)pyrrolidin-3-yl)-5-(1-methyl-1H-pyrazol-4-yl)nicotinamide]"

# Further lines, the compound ahead of its results:
row,Structure (SMILES),IC50 [nM]
1,"Cn1cc(-c2cnc(N)c(C(=O)N[C@@H]3CCN(C(=O)c4ccc(-c5ccc(C(C)(C)N6CCN(CCO)CC6)cc5)cc4)C3)c2)cn1 [Example 387, (R)-2-amino-N-(1-(4′-(2-(4-(2-hydroxyethyl)piperazin-1-yl)propan-2-yl)-[1,1′-biphenyl]-4-carbonyl)pyrrolidin-3-yl)-5-(1-methyl-1H-pyrazol-4-yl)nicotinamide]",100 to 1000
2,"Cn1cc(-c2cnc(N)c(C(=O)N[C@@H]3CCN(C(=O)c4ccc(-c5cccc(CN6CCN(CCO)CC6)c5)cc4)C3)c2)cn1 [Example 389, (R)-2-amino-N-(1-(3′-((4-(2-hydroxyethyl)piperazin-1-yl)methyl)-[1,1′-biphenyl]-4-carbonyl)pyrrolidin-3-yl)-5-(1-methyl-1H-pyrazol-4-yl)nicotinamide]",100 to 1000
3,"CN1CCN(Cc2ccc(-c3cccc(C(=O)N4CC[C@@H](NC(=O)c5cc(-c6cnn(C)c6)cnc5N)C4)c3)cc2)CC1 [Example 390, (R)-2-amino-5-(1-methyl-1H-pyrazol-4-yl)-N-(1-(4′-((4-methylpiperazin-1-yl)methyl)-[1,1′-biphenyl]-3-carbonyl)pyrrolidin-3-yl)nicotinamide]",> 1000
4,"Cn1cc(-c2cnc(N)c(C(=O)N[C@@H]3CCN(C(=O)c4ccc(-c5ccccc5Cl)cn4)C3)c2)cn1 [Example 395, (R)-2-amino-N-(1-(5-(2-chlorophenyl)picolinoyl)pyrrolidin-3-yl)-5-(1-methyl-1H-pyrazol-4-yl)nicotinamide]",100 to 1000
5,"Cn1cc(-c2cnc(N)c(C(=O)N[C@@H]3CCN(C(=O)c4ccc(-c5ccccc5)cn4)C3)c2)cn1 [Example 396, (R)-2-amino-5-(1-methyl-1H-pyrazol-4-yl)-N-(1-(5-phenylpicolinoyl)pyrrolidin-3-yl)nicotinamide]",> 1000
6,"Cc1cc(C(=O)N2CC[C@@H](NC(=O)c3cc(-c4cnn(C)c4)cnc3N)C2)ccc1-c1ccccc1 [Example 399, (R)-2-amino-5-(1-methyl-1H-pyrazol-4-yl)-N-(1-(2-methyl-[1,1′-biphenyl]-4-carbonyl)pyrrolidin-3-yl)nicotinamide]",100 to 1000
7,"Cn1cc(-c2cnc(N)c(C(=O)N[C@@H]3CCN(C(=O)c4cc5cc(Cl)ccc5o4)C3)c2)cn1 [Example 403, (R)-2-amino-N-(1-(5-chlorobenzofuran-2-carbonyl)pyrrolidin-3-yl)-5-(1-methyl-1H-pyrazol-4-yl)nicotinamide]",> 1000
8,"Cn1cc(-c2cnc(N)c(C(=O)N[C@@H]3CCN(C(=O)c4cc5ccccc5s4)C3)c2)cn1 [Example 406, (R)-2-amino-N-(1-(benzo[b]thiophene-2-carbonyl)pyrrolidin-3-yl)-5-(1-methyl-1H-pyrazol-4-yl)nicotinamide]",100 to 1000
9,"Cn1cc(-c2cnc(N)c(C(=O)N[C@@H]3CCN(C(=O)c4ccc(OCc5ccccc5)cc4)C3)c2)cn1 [Example 410, (R)-2-amino-N-(1-(4-(benzyloxy)benzoyl)pyrrolidin-3-yl)-5-(1-methyl-1H-pyrazol-4-yl)nicotinamide]",100 to 1000
10,"Cn1cc(-c2cnc(N)c(C(=O)N[C@@H]3CCN(C(=O)c4cccc(Oc5ccccc5)c4)C3)c2)cn1 [Example 412, (R)-2-amino-5-(1-methyl-1H-pyrazol-4-yl)-N-(1-(3-phenoxybenzoyl)pyrrolidin-3-yl)nicotinamide]",> 1000
11,"Cn1cc(-c2cnc(N)c(C(=O)N[C@@H]3CCN(C(=O)c4ccc(C(C)(C)C)cc4)C3)c2)cn1 [Example 414, (R)-2-amino-N-(1-(4-(tert-butyl)benzoyl)pyrrolidin-3-yl)-5-(1-methyl-1H-pyrazol-4-yl)nicotinamide]",> 1000
12,"Cc1ccc(C(=O)N2CC[C@@H](NC(=O)c3cc(-c4cnn(C)c4)cnc3N)C2)cc1C [Example 415, (R)-2-amino-N-(1-(3,4-dimethylbenzoyl)pyrrolidin-3-yl)-5-(1-methyl-1H-pyrazol-4-yl)nicotinamide]",> 1000
13,"CC(C)c1ccc(C(=O)N2CC[C@@H](NC(=O)c3cc(-c4cnn(C)c4)cnc3N)C2)cc1 [Example 418, (R)-2-amino-N-(1-(4-isopropylbenzoyl)pyrrolidin-3-yl)-5-(1-methyl-1H-pyrazol-4-yl)nicotinamide]",> 1000
14,"Cn1cc(-c2cnc(N)c(C(=O)N[C@@H]3CCN(C(=O)c4ccc(C#N)cc4)C3)c2)cn1 [Example 419, (R)-2-amino-N-(1-(4-cyanobenzoyl)pyrrolidin-3-yl)-5-(1-methyl-1H-pyrazol-4-yl)nicotinamide]",> 1000
15,"CSc1ccc(C(=O)N2CC[C@@H](NC(=O)c3cc(-c4cnn(C)c4)cnc3N)C2)cc1 [Example 420, (R)-2-amino-5-(1-methyl-1H-pyrazol-4-yl)-N-(1-(4-(methylthio)benzoyl)pyrrolidin-3-yl)nicotinamide]",> 1000
16,"Cn1cc(-c2cnc(N)c(C(=O)N[C@@H]3CCN(C(=O)Cc4ccc(-c5ccccc5)cc4)C3)c2)cn1 [Example 422, (R)—N-(1-(2-([1,1′-biphenyl]-4-yl)acetyl)pyrrolidin-3-yl)-2-amino-5-(1-methyl-1H-pyrazol-4-yl)nicotinamide]",> 1000
17,"C/C(=C\c1ccccc1)C(=O)N1CC[C@@H](NC(=O)c2cc(-c3cnn(C)c3)cnc2N)C1 [Example 426, (R,E)-2-amino-5-(1-methyl-1H-pyrazol-4-yl)-N-(1-(2-methyl-3-phenylacryloyl)pyrrolidin-3-yl)nicotinamide]",> 1000
